By Km is commonly meant the concentration of substrate that gives half-maximal velocity.

The experiment deals with T1, recombinant PDA (rPDA) from Variovorax sp. F1.
T1 construct: full-length gene product, 399 residues; 45 kDa band; pET28a NdeI/XhoI (N-terminal His tag), E. coli BL21 (DE3), HisTrap
The experiment is described as follows: HPLC initial velocity, Michaelis-Menten fit. Format: biochemical. The note with it: 50 mM Tris-HCl pH 7.5, 30 °C. The text has this:
HPLC initial velocity, Michaelis-Menten fit on recombinant PDA (rPDA) from Variovorax sp.

Regarding `Nc1nc2ncc(CNc3ccc(C(=O)N[C@@H](CCC(=O)O)C(=O)O)cc3)nc2c(=O)[nH]1` [folic acid], where the note is “deamination to deaminofolic acid”, the Km was found to be 280 ± 60 µM.
As to `Nc1nc2ncc(CNc3ccc(C(=O)O)cc3)nc2c(=O)[nH]1` [pteroic acid], the Km (deamination to deaminopteroic acid) is 1500 ± 600 µM.

The record behind these values is article PMC9513972, “Carboxypeptidase G and pterin deaminase metabolic pathways degrade folic acid in Variovorax sp. F1” (BMC Microbiology, 2022).
